Measurements as given in PMC4607647 (Bioorganic & medicinal chemistry letters, 2015).

How the values were obtained:
Format in all cases: biochemical
LG-PARP10cat = LG-PARP10cat (Homo sapiens, UniProt Q53GL7, L926G); conditions: for increase in potency against LG-PARP10cat compared to 1: compared to parent dq scaffold 1
GFP-WT-PARP10 = target: T1, GFP-WT-PARP10 (Homo sapiens, UniProt Q53GL7); conditions: up to 100 μM; immunoprecipitated from HEK 293T cells, 6-alkyne-NAD+ substrate
T1 sequence (Q53GL7 1-1025): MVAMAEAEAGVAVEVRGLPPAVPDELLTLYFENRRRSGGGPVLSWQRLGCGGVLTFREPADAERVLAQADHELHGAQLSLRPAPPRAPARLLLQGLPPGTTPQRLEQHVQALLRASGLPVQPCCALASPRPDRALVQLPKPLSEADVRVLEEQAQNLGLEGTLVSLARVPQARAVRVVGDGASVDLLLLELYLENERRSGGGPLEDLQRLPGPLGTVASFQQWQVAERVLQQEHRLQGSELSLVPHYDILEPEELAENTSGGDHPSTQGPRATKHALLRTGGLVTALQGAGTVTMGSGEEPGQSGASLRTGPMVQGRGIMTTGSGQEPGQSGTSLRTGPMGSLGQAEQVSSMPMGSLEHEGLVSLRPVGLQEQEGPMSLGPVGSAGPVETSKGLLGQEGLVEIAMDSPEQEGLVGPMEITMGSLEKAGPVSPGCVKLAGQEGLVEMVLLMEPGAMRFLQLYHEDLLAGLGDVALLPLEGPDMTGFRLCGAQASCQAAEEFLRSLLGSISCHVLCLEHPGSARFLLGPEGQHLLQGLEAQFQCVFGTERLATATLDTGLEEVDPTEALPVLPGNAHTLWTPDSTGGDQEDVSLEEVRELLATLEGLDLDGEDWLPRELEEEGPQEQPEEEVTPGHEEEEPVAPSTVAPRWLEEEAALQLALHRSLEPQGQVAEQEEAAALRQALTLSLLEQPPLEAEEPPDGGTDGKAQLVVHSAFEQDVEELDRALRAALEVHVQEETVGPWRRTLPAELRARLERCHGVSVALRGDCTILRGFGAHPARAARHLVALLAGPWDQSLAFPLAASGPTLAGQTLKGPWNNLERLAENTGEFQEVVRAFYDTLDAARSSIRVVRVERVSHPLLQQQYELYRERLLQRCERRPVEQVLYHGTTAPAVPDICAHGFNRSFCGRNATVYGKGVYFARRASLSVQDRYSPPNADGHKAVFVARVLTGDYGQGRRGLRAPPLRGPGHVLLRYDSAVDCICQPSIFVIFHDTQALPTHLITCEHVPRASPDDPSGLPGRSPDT

GFP-LG-PARP10 = GFP-LG-PARP10 (Homo sapiens, UniProt Q53GL7, L926G); conditions: immunoprecipitated from HEK 293T cells, 6-alkyne-NAD+ substrate
GFP-LG-PARP10, sequence (Q53GL7 whole entry L926G): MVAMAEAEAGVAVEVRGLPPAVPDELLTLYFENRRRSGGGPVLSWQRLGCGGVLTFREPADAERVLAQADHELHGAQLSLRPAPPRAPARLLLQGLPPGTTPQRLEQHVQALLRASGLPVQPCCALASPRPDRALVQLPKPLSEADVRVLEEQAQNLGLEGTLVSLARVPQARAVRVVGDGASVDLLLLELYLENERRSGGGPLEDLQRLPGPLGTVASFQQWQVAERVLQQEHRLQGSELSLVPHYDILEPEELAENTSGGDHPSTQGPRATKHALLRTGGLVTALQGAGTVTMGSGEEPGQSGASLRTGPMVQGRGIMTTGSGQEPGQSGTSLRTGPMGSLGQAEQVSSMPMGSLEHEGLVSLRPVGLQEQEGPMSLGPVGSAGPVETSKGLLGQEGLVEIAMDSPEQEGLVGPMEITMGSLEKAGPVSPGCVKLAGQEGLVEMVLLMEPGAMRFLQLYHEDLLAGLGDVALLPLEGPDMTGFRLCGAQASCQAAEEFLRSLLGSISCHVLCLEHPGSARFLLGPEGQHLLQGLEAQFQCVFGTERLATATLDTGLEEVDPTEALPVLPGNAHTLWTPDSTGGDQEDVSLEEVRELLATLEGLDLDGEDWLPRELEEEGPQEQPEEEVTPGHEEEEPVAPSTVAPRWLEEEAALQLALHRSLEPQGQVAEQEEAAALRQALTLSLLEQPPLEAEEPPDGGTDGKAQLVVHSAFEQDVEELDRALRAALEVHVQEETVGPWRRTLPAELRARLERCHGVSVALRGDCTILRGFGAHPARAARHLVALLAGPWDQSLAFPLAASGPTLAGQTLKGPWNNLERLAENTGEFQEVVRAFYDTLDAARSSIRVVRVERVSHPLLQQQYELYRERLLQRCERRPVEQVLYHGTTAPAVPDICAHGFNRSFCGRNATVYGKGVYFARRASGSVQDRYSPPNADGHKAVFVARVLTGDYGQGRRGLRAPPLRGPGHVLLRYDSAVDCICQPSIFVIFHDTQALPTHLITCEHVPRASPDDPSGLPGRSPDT

LG-PARP10cat, sequence (Q53GL7 806-1025 L926G): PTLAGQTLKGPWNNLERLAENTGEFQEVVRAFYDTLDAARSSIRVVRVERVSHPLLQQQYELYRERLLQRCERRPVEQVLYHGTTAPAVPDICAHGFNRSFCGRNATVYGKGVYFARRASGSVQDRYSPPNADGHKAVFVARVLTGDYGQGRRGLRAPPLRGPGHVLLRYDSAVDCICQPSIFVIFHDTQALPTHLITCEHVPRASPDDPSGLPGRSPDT

| SMILES | selectivity for LG-PARP10cat versus WT-PARP10cat (LG-PARP10cat; LG- versus WT-PARP10cat) | effect on auto-ADP-ribosylation of GFP-WT-PARP10 (GFP-WT-PARP10) | inhibition of auto-ADP-ribosylation of GFP-LG-PARP10 (GFP-LG-PARP10) | increase in potency against LG-PARP10cat compared to 1 (LG-PARP10cat) |
| --- | --- | --- | --- | --- |
| O=C1NCCc2ccc(Br)cc21 [Compound 4, 7-Br-dq] | greater than 10 fold | unaffected | inhibited the auto-ADP-ribosylation of GFP-LG-PARP10 in a dose-dependent manner | – |
| Cc1ccc2c(c1)C(=O)NCC2 [Compound 5] | – | – | – | did not exhibit increased potency |
| O=C1NCCc2ccc(C(F)(F)F)cc21 [Compound 6] | – | – | – | 2 fold |
| O=C1NCCc2ccc(O)cc21 [Compound 7] | – | – | – | did not exhibit increased potency |
| COc1ccc2c(c1)C(=O)NCC2 [Compound 8] | – | – | – | did not exhibit increased potency |
